Results reported in patent US9458187B2, “Methods for treatment of inflammatory conditions using S-[4-(3-fleuro-3-methylbutyryloxy)but-2-ynyl]6α, 9α-difluoro-17α-(furan-2-yl) carbonyloxy-11β-hydroxy-16α-methyl-3-oxoandrosta-1,4-diene-17β-carbothioate” (Sun Pharma Advanced Research Company Limited, priority 2013, dated 2016).
One block for each compound: values may come before it.

How the values were obtained:
[1] = test system: liver glycogen deposition; test: Liver glycogen deposition; assay type: in vivo, Male Sprague Dawley rats; conditions: 3 mg/kg intratracheal, 2 doses 24 hrs apart, adrenalectomized rats
croton oil ear edema = test: Croton oil ear edema; assay type: in vivo, Mice (male, CD-1); conditions: for Inhibition of ear edema (%): 1.6 μg, applied to ear 2 hrs before croton oil
Method: Mice (male, CD-1) were made into different groups. A method similar to one reported in the literature was used. Test compounds were dissolved in pyridine-water-acetone (4:2:14) solution 10 μl of this solution of compound or vehicle solution was applied to the left ear of the mice. The right ear of each mouse was applied simultaneously with 10 μl of pyridine: water: acetone (4:2:14) solution. After 2 hrs of compound or vehicle application, 10 μl of croton oil solution was applied to the left ear of all animals. After 6 hr of croton oil treatment the animals were sacrificed; ears were excised and weighed separately.

cotton pellet granuloma = test: Cotton pellet granuloma test; assay type: in vivo, SD rats; conditions: 100 mcg/pellet
Method: SD rats were used for assessing anti-inflammatory activity of test compound using cotton pellet granuloma method. Sterilized cotton pellets weighing 20 mg were prepared. Test compounds were dissolved in acetone so as to get the required quantity for each cotton pellet in 500 μl. Different pellets were impregnated with 500 μl of acetone to contain required quantity of test compounds and allowed to dry. Vehicle control pellets were impregnated with 500 μl acetone.
Rats were made into different groups. Two cotton pellets were surgically implanted into the scapular region of each rat. On sixth day of such implantation, pellets along with granuloma were taken out. Thymus gland was also separated from each animal and weighed. The pellets with granuloma were dried for 20 hrs at 60° C. and weighed. Mean weights of dry granuloma and thymus, body weight gain/100 g body weights were calculated.

[2] = test system: skin atrophy and systemic side effects; test: Skin atrophy and systemic side effects on topical application; assay type: in vivo, Male SD rats; conditions: dermal, daily 14 days
Description: Male SD rats were lightly anesthetized with isoflurane. Bilaterally paired sites were marked on the back, one on each side of the flank. One of the sites was applied with an appropriate dose of compound of the present invention and fluticasone propionate dissolved in the acetone, daily for a period of 14 days. Contralateral site served as solvent treated controls and received acetone. Body weights were monitored on 0-14 days. On day 15, twenty-four hours after the last applications, blood was collected from the tail vein to determine total and differential blood cell count. The animals were euthanized and full-thickness skin from shaved area was punched to get 15 mm diameter plugs. The subcutaneous fat and muscle was removed and the punched plug was weighed. Thymus weights of each animal were also determined as a marker of systemic corticosteroid activity

[3] = test system: Sephadex-induced lung edema; test: Sephadex-induced lung edema; assay type: in vivo, SD rats; conditions: Rattus norvegicus; i.t., 24 hrs and 2 hrs prior to Sephadex; read-out: ED50 Lung edema inhibition
Method: (§1) Sephadex® G-200 was prepared in sterile saline (10 mg/ml) and allowed to swell for at least 3 days at room temperature. Test compounds were administered intratracheally at 24 hrs and 2 hrs prior to intratracheal administration of Sephadex® (5 mg/kg) under light ether anesthesia. Vehicle control animals were administered vehicle instead of Sephadex®. At 24 hr after Sephadex® instillation, lung and thymus were excised from individual animals and weighed. Wet weights of lungs and thymus were corrected for 100 g of initial body weight. The percentage increase in lung weight caused by Sephadex® and its inhibitions by the compounds, were calculated. The percentage inhibitions of thymus compared to vehicle control group were also calculated

[4] = Sephadex-induced lung edema; assay type: in vivo, SD rats; conditions: Sprague-Dawley, rat, thymus, other: intratracheal; i.t., 24 hrs and 2 hrs prior to Sephadex; read-out: ED50 Thymus involution
Method: as §1

[5] = test system: liver glycogen deposition; test: Liver glycogen deposition; assay type: in vivo, Male Sprague Dawley rats; conditions: 3 mg/kg intratracheal, 2 doses 24 hrs apart, adrenalectomized rats; remark: listed apart in the source
Method: Male Sprague Dawley rats, weighing 190-220 g were bilaterally adrenalectomized and maintained on 0.9% saline solution throughout the experiment. On day 5th and 6th of adrenalectomy, animals were made into different groups, test compounds prepared in cold saline (sonicated for 30 min) were instilled intratracheally 2 doses @3 mg/kg, 24 hrs apart. At 15 hrs after the last treatment, animals were sacrificed and livers were excised and weighed. The glycogen content of the livers was determined by anthrone method. Briefly, a weighed quantity of liver tissue was homogenized with 5% trichloroacetic acid, supernatant mixed with ethanol and kept overnight for precipitation. The glycogen thus extracted was estimated as glucose generated after acid hydrolysis by addition of anthrone reagent at 620 nm. Glycogen content was expressed as mg/100 g liver.

[6] = test system: ovalbumin-induced increase in intranasal pressure; test: Ovalbumin-induced increase in intranasal pressure; assay type: in vivo, guinea pigs; conditions: intranasal instillation 24 hr and 2 hr prior to ovalbumin challenge; FIG. 2
Method: Animals sensitized with ovalbumin as described above were used for experiments determining intranasal pressure. Intranasal instillation of compound of formula I, fluticasone propionate or placebo was done 24 hr and 2 hr prior to challenge with ovalbumin. The nasopharynx was catheterized with a PE cannula, one end of which was attached to pressure transducer and other to the nebulizer. Ovalbumin (5%) was nebulized into the nasal cavity for 10 min. The changes in intranasal pressure were recorded for following 45 min and differential pressure (dP) was calculated.

[7] = target: T1, Human Glucocorticoid receptor (Homo sapiens, UniProt P04150); test: Human glucocorticoid receptor binding (in vitro), [3H]dexamethasone radioligand; conditions: at 0.1 μM
T1 construct: expressed in transfected cells; host or cells: human HeLa cells
T1 sequence (P04150 1-777): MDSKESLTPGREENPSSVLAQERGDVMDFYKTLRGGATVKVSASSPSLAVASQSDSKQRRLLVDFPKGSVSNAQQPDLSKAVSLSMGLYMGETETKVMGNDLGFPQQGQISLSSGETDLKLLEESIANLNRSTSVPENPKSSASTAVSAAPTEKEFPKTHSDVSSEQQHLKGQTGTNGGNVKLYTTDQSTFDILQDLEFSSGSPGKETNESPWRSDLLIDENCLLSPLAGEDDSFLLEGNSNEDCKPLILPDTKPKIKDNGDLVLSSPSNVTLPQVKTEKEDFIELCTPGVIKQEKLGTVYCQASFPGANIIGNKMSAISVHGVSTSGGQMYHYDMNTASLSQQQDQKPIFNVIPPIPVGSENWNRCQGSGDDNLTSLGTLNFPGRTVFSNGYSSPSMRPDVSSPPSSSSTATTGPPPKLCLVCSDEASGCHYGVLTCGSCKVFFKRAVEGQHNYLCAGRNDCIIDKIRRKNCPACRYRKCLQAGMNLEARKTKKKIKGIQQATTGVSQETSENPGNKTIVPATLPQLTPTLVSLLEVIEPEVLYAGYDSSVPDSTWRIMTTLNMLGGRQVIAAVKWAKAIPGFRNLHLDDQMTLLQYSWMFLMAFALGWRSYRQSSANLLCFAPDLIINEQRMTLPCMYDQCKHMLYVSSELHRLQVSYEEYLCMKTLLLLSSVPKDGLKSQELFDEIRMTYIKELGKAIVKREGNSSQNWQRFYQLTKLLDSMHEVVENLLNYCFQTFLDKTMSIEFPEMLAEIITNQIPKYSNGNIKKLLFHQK
Method: The activity of test compounds on glucocorticoid receptor was assessed using radioligand binding assays.
The % inhibition was evaluated using a single concentration of test compound and the corresponding radiolabeled ligand. Results are presented as the percent inhibition of specific binding. The values are average of duplicate determinations for each concentration.

Compound: C[C@@H]1C[C@H]2[C@@H]3CCC4=CC(=O)C=C[C@]4(C)[C@@]3(F)[C@@H](O)C[C@]2(C)[C@@]1(O)C(=O)CO [Dexamethasone]
Inhibition of ear edema (%) (croton oil ear edema): 50.05%

Compound: C[C@@H]1CC2C3C[C@H](F)C4=CC(=O)C=C[C@]4(C)[C@@]3(F)[C@@H](O)C[C@]2(C)[C@@]1(OC(=O)c1ccco1)C(=O)SCC#CCO (stereo partly drawn) [formula II, S-(4-Hydroxy-but-2-ynyl)6α,9α-difluoro-17α-(furan-2-yl)carbonyloxy-11β-hydroxy-16α-methyl-3-oxoandrosta-1,4-diene-17β-carbothioate]
potency in topical in vivo anti-inflammatory models such as croton oil ear edema (croton oil ear edema; compared with compound of the present invention): significantly less potent

Compound: C[C@@H]1CC2C3C[C@H](F)C4=CC(=O)C=C[C@]4(C)[C@@]3(F)[C@@H](O)C[C@]2(C)[C@@]1(OC(=O)c1ccco1)C(=O)O (stereo partly shown) [formula III]
inhibition at 0.1 µM [7]: 2%

Now from value to compound, other results behind:

% Inhibition of thymus [1]: 70.17%
Thymus wt. (% Decrease) B (cotton pellet granuloma): 73.56%
ED50 at 24 h [4]: 0.36 mg/kg
Glycogen content [5]: 1514.65 mg/100 g liver
Compound: CCC(=O)O[C@]1(C(=O)SCF)[C@H](C)C[C@H]2[C@@H]3C[C@H](F)C4=CC(=O)C=C[C@]4(C)[C@@]3(F)[C@@H](O)C[C@@]21C [Fluticasone propionate]
Inhibition of ear edema (%) (croton oil ear edema): 81.09%
Mean % Inhibition of Granuloma A (cotton pellet granuloma): 66.04%
% Body Weight Gain ([2]; 6 μg/site): 68.1%
% Inhibition Lymphocytes ([2]; 6 μg/site): 31.7%
% Inhibition Neutrophils ([2]; 6 μg/site): 25.8%
% Inhibition Skin weight ([2]; 6 μg/site): 25.3%
% Inhibition Thymus ([2]; 6 μg/site): 2.0%
% Inhibition Total leukocyt ([2]; 6 μg/site): 31.4%
% Body Weight Gain ([2]; 18 μg/site): 67.4%
% Inhibition Lymphocytes ([2]; 18 μg/site): 15.9%
% Inhibition Neutrophils ([2]; 18 μg/site): 24.5%
% Inhibition Skin weight ([2]; 18 μg/site): 20.8%
% Inhibition Thymus ([2]; 18 μg/site): 5.4%
% Inhibition Total leukocyt ([2]; 18 μg/site): 17.5%
% Body Weight Gain ([2]; 60 μg/site): 61.9%
% Inhibition Lymphocytes ([2]; 60 μg/site): 15.6%
% Inhibition Neutrophils ([2]; 60 μg/site): 14.5%
% Inhibition Skin weight ([2]; 60 μg/site): 27.9%
% Inhibition Thymus ([2]; 60 μg/site): 23.0%
% Inhibition Total leukocyt ([2]; 60 μg/site): 15.2%
% Body Weight Gain ([2]; 180 μg/site): 42.5%
% Inhibition Lymphocytes ([2]; 180 μg/site): 34.1%
% Inhibition Neutrophils ([2]; 180 μg/site): 24.6%
% Inhibition Skin weight ([2]; 180 μg/site): 30.0%
% Inhibition Thymus ([2]; 180 μg/site): 55.0%
% Inhibition Total leukocyt ([2]; 180 μg/site): 32.7%
ED50 [3]: 0.086 mg/kg
inhibition of intranasal pressure [6]: equivalent inhibition

% Inhibition of thymus [1]: 61.34%
Thymus wt. (% Decrease) B (cotton pellet granuloma): 15.16%
ED50 at 24 h [4]: 3.13 mg/kg
Glycogen content [5]: 263.96 mg/100 g liver
Compound: CC(C)C(=O)OCC(=O)[C@@]12O[C@H](C3CCCCC3)O[C@@H]1C[C@H]1[C@@H]3CCC4=CC(=O)C=C[C@]4(C)[C@H]3[C@@H](O)C[C@@]12C [Ciclesonide]
Mean % Inhibition of Granuloma A (cotton pellet granuloma): 63.38%
ED50 [3]: 0.388 mg/kg

% Inhibition of thymus [1]: 65.02%
ED50 at 24 h [4]: 0.68 mg/kg
Glycogen content [5]: 552.77 mg/100 g liver
Compound: CCCC1O[C@@H]2C[C@H]3[C@@H]4CCC5=CC(=O)C=C[C@]5(C)[C@H]4[C@@H](O)C[C@]3(C)[C@]2(C(=O)CO)O1 (stereo partly shown) [Budesonide]

% Inhibition of thymus [1]: 43.51%
Glycogen content [5]: 1117.32 mg/100 g liver
Compound: C[C@@H]1C[C@H]2[C@@H]3CCC4=CC(=O)C=C[C@]4(C)[C@@]3(Cl)[C@@H](O)C[C@]2(C)[C@@]1(OC(=O)c1ccco1)C(=O)CCl [Mometasone furoate]
